From paper PMC7395068, “The evolution of strategies to minimise the risk of human drug-induced liver injury (DILI) in drug discovery and development” (Archives of Toxicology, 2020)
Read-outs that look alike come from different tables or passages of the source.

Key:
rBsep = conditions: In vitro Assay; ref Dawson 2012; cited from earlier work
HepaRG spheroids = assay: Combined HCI (HCS) and cellular ATP 3D assay in HepaRG spheroids; conditions: for AC50 / minimal effective concentration: Homo sapiens
PHH [1] = conditions: cited from earlier work
hLiMTs [2] = conditions: cited from earlier work
[3] = cited from earlier work
HepG2 cells [4] = conditions: cited from earlier work
HepG2 = system: HepG2; design: method as in Albrecht 2019; conditions: In vitro Assay; ref Albrecht 2019; cited from earlier work
[5] = Plasma free fraction (fu) and unbound Cmax (Cmax,u); assay type: in vitro ADME, human; conditions: unbound plasma Cmax
PHH spheroids = conditions: cited from earlier work
[6] = system: THLE or HepG2 cells, isolated mitochondria, BSEP; conditions: cited from earlier work
[7] = system: isolated mouse liver mitochondria; conditions: In vitro Assay; ref Porceddu 2012; cited from earlier work
[8] = system: THLE-Null and THLE-3A4 cells; conditions: In vitro Assay; ref Gustafsson 2014; cited from earlier work
[9] = read-out: Human plasma Cmax; total plasma Cmax.tot, median of 9 literature references; cited from earlier work
[10] = plasma free fraction; cited from earlier work
hLiMTs [11] = assay: Combined HCI (HCS) and cellular ATP 3D assay in hLiMTs; conditions: for AC50 / minimal effective concentration: Homo sapiens
[12] = cited from earlier work; remark: listed apart in the source
[13] = ref Chen 2011; cited from earlier work
HepG2 cells [14] = conditions: cited from earlier work; remark: listed apart in the source
[15] = system: HepG2 C3A spheroid, BSEP, Glu/Gal in HepG2 cells, bioactivation; conditions: cited from earlier work
PHH [16] = conditions: In vitro Assay; ref Albrecht 2019; cited from earlier work
[17] = Microtissue model structural based (HCI), combined HCS and ATP, MEC < 25 × Cmax.tot cut-off
[18] = In vitro Assay, ref Proctor 2017
[19] = In vitro Assay, ref Persson 2013
[20] = Modeled in vitro assays (cytotoxicity, mitochondrial dysfunction, BSEP), ref Aleo et al. 2019

O=C1CN(/N=C/c2ccc([N+](=O)[O-])o2)C(=O)N1 [nitrofurantoin, reference compound]
Inhibition of rBsep cutoff<1& cmax u>.2 (rBsep): -VE | Inhibition of rBsep cutoff<3 (rBsep): -VE | HepaRG <25x Avg Cmax ATP (HepaRG spheroids; HepaRG, ATP endpoint, cut-off <25x Avg Cmax): +ve | HepaRG <100x Avg Cmaxu ATP (HepaRG spheroids; HepaRG, ATP endpoint, cut-off <100x Avg Cmaxu): +ve (<100x Avg Cmaxu) | HepaRG <25x Avg Cmax HCS (HepaRG spheroids; HepaRG, HCS endpoints, cut-off <25x Avg Cmax): +ve | HepaRG <100x Avg Cmaxu HCS (HepaRG spheroids; HepaRG, HCS endpoints, cut-off <100x Avg Cmaxu): +ve (<100x Avg Cmaxu) | HepaRG <25x Avg Cmax All (HepaRG spheroids; HepaRG, all endpoints (ATP and HCS), cut-off <25x Avg Cmax): +ve | HepaRG Cmax max All (HepaRG spheroids; HepaRG, all endpoints, Cmax max used): +ve | HepaRG Cmax min All (HepaRG spheroids; HepaRG, all endpoints, Cmax min used): +ve | HepaRG <10 uM All (HepaRG spheroids; HepaRG, all endpoints, cut-off <10 uM): +ve (<10 uM) | HepaRG <100x Avg Cmaxu All (HepaRG spheroids; HepaRG, all endpoints, cut-off <100x Avg Cmaxu): +ve (<100x Avg Cmaxu) | AC50 (HepaRG spheroids; HepaRG, read-out: ATP endpoint AC50): 11.6 µM | minimal effective concentration (HepaRG spheroids; HepaRG, read-out: ATP endpoint MEC): 9.27 µM | AC50 (HepaRG spheroids; HepaRG, read-out: HCS endpoint AC50): 17.5 µM | minimal effective concentration (HepaRG spheroids; HepaRG, read-out: HCS endpoint MEC): 5.59 µM | DILI prediction HepaRG spheroids (HCS-MEC) (HepaRG spheroids; [17]): +VE (MEC < 25 × Cmax.tot cut-off) | PHH/100uM, Proctor (2017) (PHH [1]; 2D PHH, ATP, IC50 threshold 100 µM, ref Proctor et al. 2017): +VE (IC50 threshold of 100 µM) | PHH ATP <100uM (PHH [1]; [18]): +VE (IC50 threshold of 100 µM) | hLiMTs ATP <100uM (hLiMTs [2]; [18]): +VE (IC50 threshold of 100 µM) | hLiMTs/100uM, Proctor (2017) (hLiMTs [2]; hLiMTs, ATP, IC50 threshold 100 µM, ref Proctor et al. 2017): +VE (IC50 threshold of 100 µM) | DILI severity category (Chen et al. [2016]) ([3]; LTKB DILIrank category, ref Chen et al. 2016): Most | DILI severity category (Chen 2016) ([3]; human DILI classification, LTKB DILIrank, ref Chen et al. 2016): Most | DILI severity category ([3]; human DILI severity, ref Chen et al.): Most | DILI +VE (5-8), DILI -VE (-4) ([3]; ref Chen 2016): +VE | DILI severity category ([3]; ref Chen 2016): vMost-DILI-Concern | Cluser analysis (HepG2 cells [4]; [19]): -VE | Structural based (HCI) (HepG2 cells [4]; [19]): +VE | DILI in vitro assay prediction, Persson (2013) (HepG2 cells [4]; Structural based (HCI), HepG2, ref Persson et al. 2013): -VE | Cytotoxicity HepG2 48 hrs (HepG2): +VE | Human plasma Cmax,u [5]: 6.508 µM | hLiMTs ATP <20 x Cmax (PHH spheroids; In vitro Assay, ref Vorrink 2018): +VE (IC20 < 20 × Cmax.tot cut-off) | DILI in vitro assay prediction, Vorrink (2018) (PHH spheroids; PHH spheroids, ATP, 14 days, IC20 < 20 × Cmax.tot, ref Vorrink et al. 2018): +VE (IC20 < 20 × Cmax.tot cut-off) | Partition Hybrid HRM Score ([6]; In vitro Assay, ref Aleo 2019): +VE | Ro2 Hybrid HRM Score ([6]; In vitro Assay, ref Aleo 2019): +VE | Partition Hybrid HRM Score ≥4, Aleo (2019) [6, 20]: +VE (Partition Hybrid HRM Score ≥4) | Partition Hybrid HRM Score ≥8, Aleo (2019) [6, 20]: -VE | Rule of Two hybrid HRM Score ≥3, Aleo (2019) [6, 20]: +VE (Rule of Two hybrid HRM Score ≥3) | Rule of Two hybrid HRM Score ≥8, Aleo (2019) [6, 20]: -VE | in vitro data EC2<=1x Cmax [7]: +VE | in vitro data EC20<=2uM [7]: -VE | THLE-Null [8]: -VE | Cmax [9]: 21 µM | fu [10]: 0.310 | AC50 (hLiMTs [11]; read-out: ATP endpoint AC50): 11.7 µM | minimal effective concentration (hLiMTs [11]; read-out: ATP endpoint MEC): 3.21 µM | AC50 (hLiMTs [11]; read-out: HCS endpoint AC50): 73.6 µM | minimal effective concentration (hLiMTs [11]; read-out: HCS endpoint MEC): 19.4 µM | DILI prediction hLiMTs (HCS-MEC) (hLiMTs [11]; [17]): +VE (MEC < 25 × Cmax.tot cut-off) | hLiMTs <25x Avg Cmax ATP (hLiMTs [11]; hLiMTs, ATP endpoint, cut-off <25x Avg Cmax): +ve | hLiMTs <100x Avg Cmaxu ATP (hLiMTs [11]; hLiMTs, ATP endpoint, cut-off <100x Avg Cmaxu): +ve (<100x Avg Cmaxu) | hLiMTs <25x Avg Cmax HCS (hLiMTs [11]; hLiMTs, HCS endpoints, cut-off <25x Avg Cmax): +ve | hLiMTs <100x Avg Cmaxu HCS (hLiMTs [11]; hLiMTs, HCS endpoints, cut-off <100x Avg Cmaxu): +ve (<100x Avg Cmaxu) | hLiMTs <25x Avg Cmax All (hLiMTs [11]; hLiMTs, all endpoints (ATP and HCS), cut-off <25x Avg Cmax): +ve | hLiMTs Cmax max All (hLiMTs [11]; hLiMTs, all endpoints, Cmax max used): +ve | hLiMTs Cmax min All (hLiMTs [11]; hLiMTs, all endpoints, Cmax min used): +ve | hLiMTs <10 uM All (hLiMTs [11]; hLiMTs, all endpoints, cut-off <10 uM): +ve (<10 uM) | hLiMTs <100x Avg Cmaxu All (hLiMTs [11]; hLiMTs, all endpoints, cut-off <100x Avg Cmaxu): +ve (<100x Avg Cmaxu) | Assigned DILI category ([12]; Chen et al. 2016 or literature alignment, ref Chen et al. 2016): 3 | In vivo DILI ([12]; […]): +VE | In vivo DILI ([12]; ref Albrecht 2019): +VE | In vivo DILI ([12]; ref Aleo 2019): +VE | In vivo DILI ([12]; ref Dawson 2012): +VE | In vivo DILI ([12]; ref Garside 2014): +VE | In vivo DILI ([12]; ref Gustafsson 2014): +VE | In vivo DILI ([12]; ref O'Brien 2006): +VE | In vivo DILI ([12]; ref Persson 2013): +VE | In vivo DILI ([12]; ref Porceddu 2012): +VE | In vivo DILI ([12]; ref Proctor 2017): +VE | In vivo DILI ([12]; ref Vorrink 2018): +VE | In vivo DILI ([12]; ref Williams 2019): +VE | DILI Score (FDA) (1-8) [13]: 8 | Structural based (HCI) (HepG2 cells [14]; In vitro Assay, ref O'Brien 2006): +VE | DILI in vitro assay prediction, O'Brien (2006) (HepG2 cells [14]; Structural based (HCI), HepG2, ref O'Brien et al. 2006): +VE (lowest HCI endpoint IC50 (or in the absence of dose–response < 100 µM) < 30 × total human plasma exposure levels (Cmax.tot)) | Bayesian Machine Learning DILI prediction, Williams (2019) ([15]; Bayesian modeling, ref Williams et al. 2019): +VE | Bayesian Machine Learning ([15]; In vitro Assay, ref Williams 2019): +VE | Cytotoxicity PHH 48 hrs (PHH [16]): +VE
